Test results from article PMC9452764, “Pseudomonas syringae pv. tomato infection of tomato plants is mediated by GABA and L‐Pro chemoperception” (Molecular Plant Pathology, 2022).
Like-named read-outs stand apart in the source and are kept apart here.

Target: T1, PsPto‐PscC‐LBD (Pseudomonas syringae group genomosp. 3, UniProt Q883C0)
T1 construct: gene PSPTO_2448; pET28b(+) derivative p2448-LBD, HisTrap purified, E. coli BL21(AI)
Assay: isothermal titration calorimetry
Format: binding

T1 sequence (Q883C0 entry or part of it): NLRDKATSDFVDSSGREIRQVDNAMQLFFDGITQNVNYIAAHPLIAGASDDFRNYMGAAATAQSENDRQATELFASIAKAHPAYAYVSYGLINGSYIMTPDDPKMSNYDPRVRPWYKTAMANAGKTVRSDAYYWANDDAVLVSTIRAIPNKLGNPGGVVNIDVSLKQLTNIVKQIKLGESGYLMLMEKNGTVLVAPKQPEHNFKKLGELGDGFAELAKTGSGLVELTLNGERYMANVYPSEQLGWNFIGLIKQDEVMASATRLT

Row | SMILES | Kd (read-out: K D) | Kd
1 | NCCCC(=O)O [GABA] | 1.87 ± 0.3 µM | 
2 | O=C(O)[C@@H]1CCCN1 [L‐Pro] |  | 4.52 ± 0.4 µM
